Experimental data published in PubChem BioAssay (NCI).
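Values below derive from 48-hour exposures of cells grown in 96-well plates, with endpoints linearly interpolated between the two concentrations bracketing the appropriate inhibition level. Abbreviation: GI50, concentration required for 50% inhibition of growth. At the TGI there is no net growth.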

Legend:
Test in all cases: NCI tumour cell line growth inhibition, 48 h
OVCAR-5 ovarian = test system: OVCAR-5 ovarian
HT29 colon = test system: HT29 colon
SK-MEL-5 melanoma = test system: SK-MEL-5 melanoma
HCT-116 colon = test system: HCT-116 colon
SK-MEL-28 melanoma = test system: SK-MEL-28 melanoma
SK-MEL-2 melanoma = test system: SK-MEL-2 melanoma
NCI-H226 lung = test system: NCI-H226 lung
A498 renal = test system: A498 renal
HOP-92 NSCLC = test system: HOP-92 NSCLC
OVCAR-4 ovarian = test system: OVCAR-4 ovarian

SMILES | TGI (OVCAR-5 ovarian) [µM] | TGI (HT29 colon) [µM] | TGI (SK-MEL-5 melanoma) [µM] | TGI (HCT-116 colon) [µM] | TGI (SK-MEL-28 melanoma) [µM] | TGI (SK-MEL-2 melanoma) [µM] | TGI (NCI-H226 lung) [µM] | TGI (A498 renal) [µM] | TGI (HOP-92 NSCLC) [µM] | GI50 (HT29 colon) [µM] | GI50 (OVCAR-4 ovarian) [µM] | TGI (OVCAR-4 ovarian) [µM] | GI50 (SK-MEL-5 melanoma) [µM] | GI50 (HCT-116 colon) [µM] | GI50 (SK-MEL-28 melanoma) [µM] | GI50 (SK-MEL-2 melanoma) [µM] | GI50 (A498 renal) [µM] | GI50 (OVCAR-5 ovarian) [µM] | GI50 (HOP-92 NSCLC) [µM] | GI50 (NCI-H226 lung) [µM]
c1ccc(N=C2SC(=NC3CCCCC3)N(C3CCCCC3)C2=Nc2ccccc2)cc1 | > 100 | > 100 | > 100 | > 100 | > 100 | > 100 | > 100 | > 100 |  |  |  |  |  |  |  |  |  |  |  | 
COc1ccccc1C1C(C(=O)O)=C(CO)Oc2cc3c(cc21)OCO3 (stereo not drawn) |  | > 100 | > 100 |  | > 100 | > 100 | > 100 | > 100 | > 100 |  |  |  |  |  |  |  |  |  |  | 
Cc1nc(N)sc1-c1ccnc(Nc2ccc(N3CCOCC3)cc2)n1 |  | > 100 | > 100 | > 100 | > 100 | 59.3 |  | 2.07 |  | 2.11 | > 21.7 | > 100 | 5.05 | 1.52 | 4.22 | 5.16 | 0.731 |  |  | 
Cc1ccc(S(=O)(=O)Oc2cc(-c3ccccc3)nc3ccccc23)cc1 | 62 | 7.54 | 21.3 | 15.9 | 68.7 | 17 | 26.5 | 9.62 | 22.9 |  |  | 16.2 |  |  |  |  |  |  |  | 
CC(=O)OC1CCC2(C)C3CCC4(C)C(c5ccc(=O)oc5)CC5OC54C3CCC2(O)C1 (stereo not drawn) | 22.4 | 16.1 | 4.76 | 4.61 | 21.7 | 13 | 25.1 | 15.1 | 7.59 |  |  | 5.61 |  |  |  |  |  |  |  | 
COc1ccc(C2CC(c3cccc(Nc4ccncc4)c3)=NN2c2cc(Cl)cc(Cl)c2)cc1 (stereo not drawn) | 5.19 | 5.46 | 3.28 |  | 3.36 | 5.02 | 30.7 | 18 | 2.67 | 2.26 | 1.67 | 3.12 | 1.81 |  | 1.74 | 2.36 | 3.06 | 2.23 | 1.25 | 10.7
NC(Cc1cccc([N+](=O)[O-])c1)C(=O)O (stereo not drawn) | > 100 | > 100 | > 100 | > 100 | > 100 | > 100 | > 100 | > 100 | > 100 |  |  | > 100 |  |  |  |  |  |  |  | 
O=C(OC(=O)n1ccc2ccccc21)n1ccc2ccccc21 | > 100 | > 100 | > 100 | > 100 | > 100 | > 100 | > 100 | > 100 | > 100 |  |  | > 100 |  |  |  |  |  |  |  | 
NCCCNc1nc2ccccc2c2c(=O)c3cc(OC(F)(F)F)ccc3sc12 | 3.07 |  | 3.36 |  | 3.24 | 3.72 |  |  | 2.36 |  |  |  | 1.83 |  | 1.8 | 1.93 |  | 1.64 | 1.08 | 
C=CC(Br)(CBr)CCC(Cl)C(C)C (stereo not drawn) | 5.03 | 3.17 | 3.91 | 12 | 2.98 | 3.92 | 27.7 | 27 | 4.72 |  |  | 3.29 |  |  |  |  |  |  |  | 
CCC[CH2][Ge]([CH2]CCC)([CH2]CCC)[O]C(=O)CC(=O)c1ccccc1 | 14.9 | 11.1 |  | 12.3 | 19.1 | 17.9 | 17.2 |  | 9.88 | 0.64 | 2.49 | 21.3 |  | 0.191 | 4.48 | 2.22 |  | 2.17 | 0.331 | 3.23
O=NN(CCCl)C(=O)NC1CCSc2ccccc21 (stereo not drawn) | > 100 | > 100 | > 100 | > 100 | > 94.1 | > 100 | > 100 | > 100 | > 100 |  |  | > 100 |  |  |  |  |  |  |  | 
CC(=O)Oc1cccc2c(/C=N/NC(N)=S)ncc(C)c12 | 22 | 21.8 | 16.4 | 32.6 | > 48.4 | 25.3 | 12.8 | 29.2 | 32.9 |  |  | 38.6 |  |  |  |  |  |  |  | 
Cc1cc(=O)[nH]c(NN2C(Cl)C(=O)C2c2cccc(O)c2)n1 (stereo not drawn) | > 100 | > 100 | > 100 | > 100 | > 100 | > 100 |  |  | > 100 |  |  | > 100 |  |  |  |  |  |  |  | 
Cc1ccc2c(n1)C(=O)c1[nH]c3ccccc3c1C2=O | 4.54 | > 100 | 0.583 |  | > 100 | > 100 | 3.65 | 2.76 | 29 | 3.05 | 1.13 | 2.35 | 0.212 |  | 3.87 | 3.36 | 1.38 | 2.11 | 2.92 | 1.36
O=[N+]([O-])c1ccc(C=C2C(Cl)=C(Cl)C(Cl)=C2Cl)cc1 | > 100 | 7.14 | > 100 | 3.37 | 74.4 | 8.89 | 23 | 26.6 | 4.58 | 2.64 | 2.42 | 6.1 | 21.8 | 1.79 | 3.81 | 2.77 | 5.13 | 3.3 | 2.05 | 4.31
NNC(N)Nc1ccccc1 (stereo not drawn) | > 100 | > 100 | > 100 |  | > 100 | > 100 | > 100 | > 100 | > 100 |  |  | > 100 |  |  |  |  |  |  |  | 
